From the supplement of paper PMC10307832

Legend:
Experiment in all cases: relative viability (nuclei count vs DMSO), 5 days (fraction); higher = more cells survive
[1] = compound: NC(=O)[C@@H](CCC(F)(F)F)N(Cc1ccc(-c2ncon2)cc1F)S(=O)(=O)c1ccc(Cl)cc1 [Avagacestat] + NC(=O)Nc1cc(-c2cccc(F)c2)sc1C(=O)N[C@H]1CCCNC1 [AZD7762] (partner 0.2 µM)
Outline: (§1)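 Cells from lung cancer lines were seeded into 1536-well plates and, one day later, dosed by pin tool. Treatments were either a single drug or a fixed dose of an anchor drug with five library-drug doses (not always all listed) in √10 steps. After 5 days, nuclei were stained in a one-step fixation (final 0.05% Triton X-100, 1% formaldehyde, 1 ug/ml Hoechst) and counted on 4× images, and relative viability is the treated-to-vehicle nuclei ratio, as the median of duplicate plates.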

[2] = compound: NC(=O)[C@@H](CCC(F)(F)F)N(Cc1ccc(-c2ncon2)cc1F)S(=O)(=O)c1ccc(Cl)cc1 [Avagacestat] + Nc1nc2[nH]cc(CCc3ccc(C(=O)N[C@@H](CCC(=O)O)C(=O)O)cc3)c2c(=O)[nH]1 [Pemetrexed] (partner 0.2 µM)
Outline: as §1

[3] = compound: NC(=O)[C@@H](CCC(F)(F)F)N(Cc1ccc(-c2ncon2)cc1F)S(=O)(=O)c1ccc(Cl)cc1 [Avagacestat] + COc1cc2c(Oc3ccc(NC(=O)C4(C(=O)Nc5ccc(F)cc5)CC4)cc3F)ccnc2cc1OCCCN1CCOCC1 [Foretinib] (partner 0.25 µM)
Outline: as §1

[4] = compound: NC(=O)[C@@H](CCC(F)(F)F)N(Cc1ccc(-c2ncon2)cc1F)S(=O)(=O)c1ccc(Cl)cc1 [Avagacestat] + COc1cccc2cc(-c3nc([C@H]4CC[C@H](C(=O)O)CC4)n4ncnc(N)c34)[nH]c12 [OSI-027] (partner 0.5 µM)
Outline: as §1

| Cell Line | relative viability ([1]; first compound 0.08 µM) | relative viability ([1]; first compound 0.253 µM) | relative viability ([1]; first compound 0.8 µM) | relative viability ([1]; first compound 2.53 µM) | relative viability ([1]; first compound 8 µM) | relative viability ([2]; first compound 0.08 µM) | relative viability ([2]; first compound 0.253 µM) | relative viability ([2]; first compound 0.8 µM) | relative viability ([2]; first compound 2.53 µM) | relative viability ([2]; first compound 8 µM) | relative viability ([3]; first compound 0.08 µM) | relative viability ([3]; first compound 0.253 µM) | relative viability ([3]; first compound 0.8 µM) | relative viability ([3]; first compound 2.53 µM) | relative viability ([3]; first compound 8 µM) | relative viability ([4]; first compound 0.08 µM) | relative viability ([4]; first compound 0.253 µM) | relative viability ([4]; first compound 0.8 µM) | relative viability ([4]; first compound 2.53 µM) | relative viability ([4]; first compound 8 µM) |
| --- | --- | --- | --- | --- | --- | --- | --- | --- | --- | --- | --- | --- | --- | --- | --- | --- | --- | --- | --- | --- |
| NCI-H1944 | 0.455 | 0.603 | 0.571 | 0.454 | 0.719 | 0.784 | 0.654 | 0.613 | 0.599 | 0.585 | 0.895 | 1.06 | 0.795 | 0.644 | 0.779 | 0.394 | 0.501 | 0.404 | 0.343 | 0.38 |
| HARA | 0.303 | 0.276 | 0.332 | 0.24 | 0.184 | 0.227 | 0.203 | 0.226 | 0.257 | 0.244 | 1.1 | 1.39 | 0.863 | 0.867 | 0.77 | 0.603 | 0.57 | 0.484 | 0.383 | 0.49 |
| NCI-H596 | 1.21 | 1.14 | 1.17 | 0.971 | 1.05 | 0.594 | 0.56 | 0.578 | 0.528 | 0.503 | 1 | 0.831 | 0.85 | 0.809 | 0.84 | 0.81 | 0.814 | 0.688 | 0.734 | 0.593 |
| NCI-H1395 | 0.407 | 0.365 | 0.369 | 0.412 | 0.333 | 0.866 | 0.954 | 1.08 | 0.798 | 0.696 | 0.981 | 0.946 | 0.903 | 0.899 | 0.846 | 0.631 | 0.633 | 0.634 | 0.588 | 0.626 |
| NCI-H2170 | 0.968 | 1.14 | 0.928 | 0.793 | 0.877 | 0.258 | 0.268 | 0.23 | 0.274 | 0.261 | 1.02 | 1.12 | 0.988 | 0.899 | 1.01 | 0.862 | 0.8 | 0.851 | 0.721 | 0.643 |
